The record followed here is patent US20210315992A1, “ADJUVANT EFFECT OF THE TLR1/2 AGONIST DIPROVOCIM SYNERGIZES WITH CHECKPOINT-INHIBITING ANTIBODIES TO ELIMINATE DISEASE” (The Board of Regents of the University of Texas System, priority 2018, published 2021).

For test [1], the system named is OVA peptide-pulsed target cells. Briefly: In vivo CTL killing assay. On the set-up: species or system mouse. The settings on record: Tlr1−/− or Tlr2−/− mice.
In a further test the test system is C57BL/6J mice. The test is described as follows: Immunization with OVA and measurement of antibody response. The class given is in vivo, mouse. The method, then: EndoFit ovalbumin (OVA) with 98% purity minimum (SDS-PAGE) and endotoxin levels <1 EU/mg was purchased from Invivogen. Mice (4 mice per group) were immunized i.m. with 100 μg OVA mixed with vehicle (DMSO:Tween 80:saline=1:1:8), with 10 mg/kg Diprovocim, or with 2 mg/kg Alum (Alhydrogel adjuvant 2%, Invivogen). After 14 days, serum titers of OVA-specific IgG, IgG1, or IgG2b (SouthernBiotech) were measured by ELISA.

The test system of test [2] is mouse peritoneal macrophages. Briefly: IFN-β secretion by mouse peritoneal macrophages (ELISA). The class given is cell-based. The settings on record: 4 hours. The method, then: Thioglycollate-elicited macrophages were recovered 4 days after i.p. injection of 2 ml BBL thioglycollate medium, brewer modified (4% wt/vol; BD Biosciences) by peritoneal lavage with 5 ml phosphate buffered saline (PBS). The peritoneal macrophages were cultured in DMEM cell culture medium [DMEM containing 10% vol/vol FBS (Gemini Bio Products), 1% vol/vol penicillin and streptomycin (Life Technologies)] at 37° C. and 95% air/5% CO2.
(§1) Cells were seeded onto 96-well plates at 1×10^5 cells per well and stimulated with a Diprovocim (dissolved in DMSO, and final DMSO concentrations (0.2%) were kept constant in all experiments) for 4 h. Mouse TNF, IL-6, or IFN-β, or human TNF in the supernatants were measured by ELISA kits according to the manufacturer's instructions (eBioscience and PBL Assay Science). Pretreatment with 20 μg/ml anti-TLR1, anti-TLR2 or isotype control antibody (eBioscience) was for 1 hour. Unless otherwise indicated, mouse cells were from wild type C57BL/6J mice.
On the technique in general: ELISA stands for enzyme-linked immunosorbent assay.

Test [3] concerns mouse TLR1/TLR2 heterodimer. The test is described as follows: TNF induction in peritoneal macrophages from mice deficient in TLR signaling components. The class given is cell-based. The settings on record: 500 nM, 4 hours, vs C57BL/6J cells. An excerpt: (§2) C57BL/6J, Tlr2^−/−, Myd88^−/− and OT-I mice were purchased from The Jackson Laboratory. Ly96^−/− (MD-2^−/−) mice were from RIKEN BRC. Tlr4^1ps3/lps3, Tlr6^int/int, Tlr7^rsql/rsql, Tirapt^tor/tor, Ticam1^Lps2/Lps2, Ticam1^Lps2/Lps2/Irak4^otiose/otiose mice were generated on a pure C57BL/6J background by ENU mutagenesis and are described at http://mutagenetix.utsouthwestern.edu.
(§3) Tlr1^−/− mice were created by CRISPR/Cas 9 gene targeting. Female C57BL/6J mice were superovulated by injection of 6.5 U pregnant mare serum gonadotropin (PMSG; Millipore), followed by injection of 6.5 U human chorionic gonadotropin (hCG; Sigma-Aldrich) 48 hours later. The superovulated mice were subsequently mated overnight with C57BL/6J male mice. The following day, fertilized eggs were collected from the oviducts and in vitro-transcribed Cas9 mRNA (50 ng/μl) and Tlr1 small base-pairing guide RNA (50 ng/μl; 5′-[…]-3′; SEQ ID NO: XX) were injected into the cytoplasm or pronucleus of the embryos. […]
(§4) Cells were seeded onto 96-well plates at 1×10^5 cells per well and stimulated with a Diprovocim (dissolved in DMSO, and final DMSO concentrations (0.2%) were kept constant in all experiments) for 4 h. Mouse TNF, IL-6, or IFN-β, or human TNF in the supernatants were measured by ELISA kits according to the manufacturer's instructions (eBioscience and PBL Assay Science). […]

The target in test [4] is T1, mouse TLR1/TLR2 heterodimer (Mus musculus, UniProt Q9EPQ1+Q9QUN7).
T1 construct: endogenous in cells; host or cells: thioglycollate-elicited peritoneal macrophages of C57BL/6J mice (wild type and knockout/mutant genotypes)
T1 sequence (Q9EPQ1 26-795): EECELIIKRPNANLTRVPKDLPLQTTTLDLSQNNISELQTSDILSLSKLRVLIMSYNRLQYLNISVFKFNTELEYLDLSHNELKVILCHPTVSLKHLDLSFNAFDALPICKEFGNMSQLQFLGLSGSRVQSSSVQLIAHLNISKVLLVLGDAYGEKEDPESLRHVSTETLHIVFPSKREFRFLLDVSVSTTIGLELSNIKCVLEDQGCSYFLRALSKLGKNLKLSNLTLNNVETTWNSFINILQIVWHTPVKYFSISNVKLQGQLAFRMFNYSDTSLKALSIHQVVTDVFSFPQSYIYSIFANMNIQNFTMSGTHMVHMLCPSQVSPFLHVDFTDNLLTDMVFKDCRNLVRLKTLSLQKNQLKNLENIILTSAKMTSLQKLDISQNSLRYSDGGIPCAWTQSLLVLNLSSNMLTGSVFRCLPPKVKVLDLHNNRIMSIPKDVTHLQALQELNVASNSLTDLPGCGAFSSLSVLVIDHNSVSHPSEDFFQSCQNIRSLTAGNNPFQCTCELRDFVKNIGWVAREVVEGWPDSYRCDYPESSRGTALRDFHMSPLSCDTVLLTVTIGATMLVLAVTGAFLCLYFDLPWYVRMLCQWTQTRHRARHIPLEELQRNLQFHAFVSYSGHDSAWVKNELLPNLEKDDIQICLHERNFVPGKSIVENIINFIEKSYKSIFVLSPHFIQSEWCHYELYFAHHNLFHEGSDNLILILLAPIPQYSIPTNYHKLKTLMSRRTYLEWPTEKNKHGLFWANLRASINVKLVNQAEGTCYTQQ
T1 sequence (Q9QUN7 25-784): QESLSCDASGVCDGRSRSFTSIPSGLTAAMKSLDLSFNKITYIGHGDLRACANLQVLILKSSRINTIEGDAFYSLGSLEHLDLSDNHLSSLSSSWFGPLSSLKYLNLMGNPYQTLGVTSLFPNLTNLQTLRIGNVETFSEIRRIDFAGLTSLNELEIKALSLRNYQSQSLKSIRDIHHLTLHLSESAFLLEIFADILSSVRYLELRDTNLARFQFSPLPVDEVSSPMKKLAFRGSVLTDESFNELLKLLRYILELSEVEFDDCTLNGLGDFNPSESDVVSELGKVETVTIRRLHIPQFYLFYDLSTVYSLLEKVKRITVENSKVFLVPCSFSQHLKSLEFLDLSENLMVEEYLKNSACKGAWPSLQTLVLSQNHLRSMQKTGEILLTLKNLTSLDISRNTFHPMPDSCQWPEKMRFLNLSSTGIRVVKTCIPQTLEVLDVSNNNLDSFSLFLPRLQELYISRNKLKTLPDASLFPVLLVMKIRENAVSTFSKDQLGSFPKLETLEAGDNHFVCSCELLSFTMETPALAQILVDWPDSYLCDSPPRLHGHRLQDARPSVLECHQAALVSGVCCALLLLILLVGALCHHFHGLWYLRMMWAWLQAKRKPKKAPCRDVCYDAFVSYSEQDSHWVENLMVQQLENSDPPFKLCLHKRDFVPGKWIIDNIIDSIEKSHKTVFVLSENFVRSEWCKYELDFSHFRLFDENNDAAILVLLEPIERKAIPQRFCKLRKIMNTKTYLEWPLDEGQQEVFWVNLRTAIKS
The test is described as above. The class given is cell-based. The settings on record: 500 nM, 4 hours, vs C57BL/6J cells.
Excerpt: as §2, §3, §4

Another test relates to mouse BMDC. The test is described as follows: TNF production by mouse bone marrow-derived dendritic cells (ELISA). The class given is cell-based. The settings on record: 4 hours, read-out: EC50, dose-dependent TNF production. The method, then: For murine BMDCs, bone morrow cells were cultured in Petri dishes in 10 ml DMEM cell culture medium containing 10 ng/ml of murine GM-CSF (R&D Systems). On day 3 of culture, this was replaced with fresh GM-CSF medium. Loosely adherent cells were transferred to a fresh Petri dish and cultured for an additional 4 d. Human PBMC were purchased from Stemcell Technologies. THP-1 (ATCC) cells were differentiated by treatment with 100 nM PMA (Sigma) in RPMI cell culture medium [RPMI containing 10% vol/vol FBS (Gemini Bio Products), 1% penicillin and streptomycin (Life Technologies)] for 24 hours. After that, cells were washed with PBS and cultured in fresh RPMI cell culture medium for 24 hours before use in studies.
as §1

Broadly, the EC50 is the concentration that produces a half-maximal response. With `O=C(N[C@H]1C[C@@H]1c1ccccc1)[C@@H]1CN(C(=O)c2ccc(C(=O)N3C[C@@H](C(=O)N[C@H]4C[C@@H]4c4ccccc4)[C@H](C(=O)N[C@H]4C[C@@H]4c4ccccc4)C3)cc2)C[C@H]1C(=O)N[C@H]1C[C@@H]1c1ccccc1` [Diprovocim-1, (3S,3'S,4S,4'S)-1,1′-Terephthaloylbis(N^3,N^4-bis((1S,2R)-2-phenylcyclo-propyl)pyrrolidine-3,4-dicarboxamide)], the “adjuvant activity in CTL killing in TLR1- and/or TLR2-deficient mice” value in test [1] is “abrogated”. For the same compound, in the test on C57BL/6J mice (Tlr2−/− mice), the “adjuvant activity in antigen-specific antibody production in TLR2-deficient mice” value is recorded as “abrogated”. For the same compound, in the test with C57BL/6J mice (wild type mice, i.m. with 100 μg OVA, Diprovocim 10 mg/kg or alum 2 mg/kg, day 14), the “serum OVA-specific IgG compared to OVA plus vehicle” value is on record as “highly elevated”. For the same compound, the results for the “type I IFN (IFN-β) production” value in test [2] and in test [2] (listed as Diprovocim) were “failed to stimulate type I IFN production” and “does not stimulate IFN-β secretion”, respectively. In addition, the “induction of TNF in TLR1- or TLR2-deficient macrophages” value in test [3] was “completely absent”. Further, the “activity (TNF) in macrophages from MyD88-, TIRAP-, and IRAK4-deficient cells” value in test [4] is listed as “dramatically reduced”. Besides, the EC50 with mouse BMDC worked out at 6.7 nM.
